Reference: patent publication US20180104232A1, “METHODS FOR DETERMINING PROGNOSIS FOR BREAST CANCER PATIENTS” (The University of Chicago, priority 2015, published 2018)

What was measured:
[1] = test system: mouse basal-like M6C cells; test: Relative CCL5 mRNA in M6C cells treated with JQ1; type: cell-based; conditions: 300 nM JQ1, GAPDH loading control
Experimental: (§1) FIG. 21: Relative levels of HMGA2 (first bar of each set) and CCL5 (second bar of each set) are shown for the human triple-negative BM1 cell line (top) and the mouse basal-like breast cancer M6C cell line (bottom) treated with the bromodomain inhibitor JQ1, known to block HMGA2 activity. Relative levels of mRNA were calculated using the formula RQ=2-^˜˜CT with GAPDH as the loading control*0.05>p>0.01 ***0.001>p.
(§2) To overcome resistance to Maraviroc and increased CCL5 levels, the inventors are treating the tumor cells with JQ1, a bromodomain inhibitor which regulates HMGA2. HMGA2 is an upstream regulator of CCL5. Additionally, both genes expression levels are included in our prognostic signature. […] We plan to in the future test whether JQ1 in conjunction with Maraviroc are able to lead to a reduction in metastasis in a mouse model.

human TNBC BM1 cells = test: Relative CCL5 mRNA in BM1 cells treated with JQ1; type: cell-based; conditions: 300 nM JQ1, GAPDH loading control
Experimental: as §1, §2

CCL7 = conditions: TAMs isolated from treated mice
Experimental: (§3) FIG. 20A-F: A) Final tumor weights shown for nude mice treated with the anti-Progranulin neutralizing antibody A23 alone or in combination with the CCR5 inhibitor Maraviroc for 21 days starting at day 3. B) The corresponding growth curves for the treated mice. Tumor volume is calculated as (π/6)*length2*width C) To measure the _rst step of metastasis we examine the relative number of tumor cells intravasating into the blood stream. This is calculated as the relative amount of human GAPDH compared to mouse Gapdh mRNA from cells isolated from blood after treatment. D) Tumor-associated macrophages were isolated from treated mice and qRT-PCR was performed to determine the relative amount of mRNA with Gapdh serving as the loading control; each set of four bars is data from the control, A23, Maraviroc, and A23+Maraviroc, respectively. E-F) Tumor cells were isolated from tumors stripped of mouse cells. RNA was collected and Relative CCL5 and Progranulin (GRN) were calculated with GAPDH as a loading control. *0.05>p>0.01 ** 0.01>p>0.001

CCL5 = conditions: tumor cells isolated from treated mice
Experimental: as §3

tumors in nude mice = test: Treatment of tumor-bearing nude mice with A23 and/or Maraviroc (tumor weight, growth, intravasation); type: in vivo, mouse; conditions: agent alone; nude mice treated for 21 days starting at day 3
Excerpt: B) The corresponding growth curves for the treated mice.

Compound	CCL5 expression [1]	CCL5 expression (human TNBC BM1 cells)	CCL7 in the tumor-associated macrophages (CCL7)	CCL5 secreted by tumor cells in response to therapy (CCL5)	effectiveness of treatment in tumor-bearing mice (tumors in nude mice)
Cc1sc2c(c1C)C(c1ccc(Cl)cc1)=N[C@@H](CC(=O)OC(C)(C)C)c1nnc(C)n1-2 [JQ1]	significant reduction	significant reduction	–	–	–
Maraviroc	–	–	more CCL7	more CCL5	not effective
